{
  "source": "paper PMC12304352",
  "about": "“Optimization of a GMP-compliant automated one-pot synthesis of Al[^18F]F-NOTA-Ubiquicidin29 − 41 for bacterial infection imaging by PET/CT” (EJNMMI Radiopharmacy and Chemistry, 2025)",
  "origin": "cited, not measured here",
  "test_system": "methicillin-resistant S. aureus (MRSA)",
  "settings": "injected intravenously, ref Brouwer et al. [2006]",
  "source_text": "Ubiquicidin (UBI), a cationic antimicrobial peptide fragment, has emerged as a promising agent for infection imaging due to its selective binding to anionic bacterial membranes (Ferro-Flores et al. [2016]). […] Another UBI-derived peptide (UBI29 − 41) radiolabeled with technetium-99m, was used as a probe for real-time, whole- ...",
  "data": [
    {"substance": "UBI31 − 38: synthetic ubiquicidin derivative composed of only eight amino acids (KVDENGKI; Small ribosomal subunit protein eS31; UniProt P62979 107-114, looked up, fragment)", "values": [
      {"measurement": "Efficacy against MRSA in a mouse infection model", "result": "somewhat reduced activity"}
    ]}
  ]
}
